Assay results from patent US8759318B2, “Phosphoramidate derivatives of guanosine nucleoside compounds for treatment of viral infections” (Inhibitex, Inc., priority 2009, dated 2014).
Where two headings read alike, the source gives them in different places.

Columns and labels:
MDCK cells = details: Influenza B assay
[1] = system: Influenza A strain Hong Kong; assay: Cytoprotection assay, Influenza A; assay type: cell-based; details: Influenza A virus, MDCK
[2] = system: HCV replicon (Genotype 1b); assay: Luciferase genotype 1b replicon potency assay; details: Hepatitis C virus, GETYPE1B, read-out: IC50 μM, HCV genotype 1b luciferase replicon, Renilla luciferase reporter
[3] = Protide stability in normal plasma, mouse; assay type: in vitro ADME; details: 37° C.
Protocol: (§1) Selected nucleoside 5′-phosphoramidates were examined for stability in human, cynomolgous monkey, rat and mouse plasma at 37° C. at both 30 min and 90 min time points.
(§2) Protide Stability in Normal Plasma: Plasma samples were prepared for analysis as follows. 50 μl of each test sample were distributed a 96-well V-bottom plate. 200 μl of acetonitrile containing 10 ng/ml of an internal standard was added to each plasma sample. The precipitated samples were centrifuged at 2500 rpm, 4° C. for 20 minutes in a Sorvall RT6000S centrifuge (Thermo Scientific, Waltham Mass.) and 100 μl of supernatant from each sample was transferred into a 96 deep well plate followed by the addition of 100 μl H2O to each sample. Samples were covered, mixed well by vortexing and maintained at 2-8° C. before and during analysis. 15 μl of each test sample was analyzed for protide concentrations by liquid chromatography coupled to tandem mass spectrometry (LC-MS/MS). Liquid chromatography was performed with an Agilent 1100 Series HPLC system equipped with a Synergi 4 μm Polar-RP, 30×2.0 mm column (Phenomenex, Torrance, Calif.). The HPLC system was coupled to an API 4000 triple quadrupole mass spectrometer (Applied Biosystems, Framingham, Mass.). Mass spectrometry was performed in positive ion mode and data was analyzed using Analyst® v1.4.2 software (Applied Biosystems, Framingham, Mass.). Data was presented as the percentage of compound recovered as compared to the 0 time point control.

RSV strain Long = assay: Cytoprotection assay, RSV; assay type: cell-based; details: human respiratory syncytial virus, Vero
[4] = system: West Nile virus strain NY-99; assay: Cytoprotection assay, West Nile virus; assay type: cell-based; details: West Nile Virus NY-99, Vero
[5] = Protide stability in normal plasma, rat; assay type: in vitro ADME; details: 37° C.
Protocol: as §1, §2

[6] = Protide stability in normal plasma, cynomolgous monkey; assay type: in vitro ADME; details: 37° C.
Protocol: as §1, §2

in vitro = details: dog
HSV-1 strain HF = assay: Cytoprotection assay, HSV-1; assay type: cell-based; details: Human alphaherpesvirus 1, Vero
[7] = system: Vaccinia Strain Western Reserve; assay: microbe, parasite or virus in culture; assay type: cell-based; details: Orthopoxvirus vaccinia, Vero C1008
HIV-1 Strain IIIB = assay: Cytoprotection assay for HIV; assay type: cell-based; details: Human immunodeficiency virus 1; HIV-1 IIIB, MT-4
Protocol: Activity against other viruses. A representative compound, Example 20, Compound F, was tested against a panel of other RNA and DNA viruses. Compound F was synthesized as described in the Experimental section. Experimental conditions for growing the cells and viruses are listed below. Unless otherwise indicated, cells and viruses were obtained from the American Type Culture Collection (ATCC, Rockville, Md.).
MT-4 cells ((Catalog #120) Human T-cell Leukemia) were obtained from the NIH AIDS Reference Reagent Program and were used in cytoprotection assays with HIV-1 Strain IIIB (Southern Research). They were grown in RPMI-1640 medium supplemented with 10% FBS.
Cytoprotection Assay for HIV:_MT-4 cells were sub-cultured one day prior to testing. Cells were plated in 96 well cell culture plates at a seeding density of 6×10^5 cells/ml (3×10^4 cells/well). […] Cytoprotection and compound cytotoxicity were assessed by XTT assay (Cat#11-465-015-001, Roche Diagnostics). The plates were read spectrophotometrically at 450/650 nm with a Molecular Devices SpectraMax M2 plate reader. The percent reduction in viral CPE was determined and reported as IC50, CC50 and a calculated TI. Samples were evaluated for antiviral efficacy and cytotoxicity with triplicate measurements using 9 concentrations at 2-fold dilutions. […]

Influenza B strain Lee = assay: Cytoprotection assay, Influenza B; assay type: cell-based; details: Influenza B virus, MDCK
HeLa cells = details: human
[8] = system: Dengue Virus Type 2 strain New Guinea; assay: Cytoprotection assay, Dengue virus; assay type: cell-based; details: Vero C1008
Poliovirus strain Chat = assay: microbe, parasite or virus in culture; assay type: cell-based, Poliovirus I; details: Enterovirus C, Vero
[9] = system: Bovine Viral Diarrhea Virus (BVDV) strain NADL; assay: Cytoprotection assay, BVDV; assay type: cell-based; details: Bovine viral diarrhea virus isolates and strains, MDBK
[10] = Mouse PK: 2'-C-methylguanosine triphosphate levels in liver; details: 2'-C-methylguanosine triphosphate in mouse liver, 50 mg/kg PO

`COc1nc(N)nc2c1ncn2C1O[C@H](COP(=O)(N[C@@H](C)C(=O)OCC(C)(C)C)Oc2cccc3ccccc23)[C@@H](O)[C@@]1(C)O` (stereo partly shown) [Example 20] gave a CC50 (MDCK cells) of over 10 µM, an EC50 [1] of over 10 µM and an IC50 [2] of 0.001 µM. For the same compound, the “% Compound Remaining Compared to %100 Acetonitrile Control” value ([3]; 30 min) was 0%, the “% Compound Remaining Compared to %100 Acetonitrile Control” value ([3]; 1.5 h) was 0% and the EC50 (RSV strain Long) was over 10 µM. For the same compound, the EC50 [4] was 1.69 µM, the “% Compound Remaining Compared to %100 Acetonitrile Control” value ([5]; 30 min) was 0% and the “% Compound Remaining Compared to %100 Acetonitrile Control” value ([5]; 1.5 h) was 0%. The “% Compound Remaining Compared to %100 Acetonitrile Control” value ([6]; 30 min) was 97.0%, the “% Compound Remaining Compared to %100 Acetonitrile Control” value ([6]; 1.5 h) was 94.0% and the CC50 (in vitro) was over 10 µM. For the same compound, the EC50 (HSV-1 strain HF) was over 10 µM, the EC50 [7] was 4.52 µM and the EC50 (HIV-1 Strain IIIB) was over 10 µM. For the same compound, the CC50 (Vero cells; African green monkey) was over 10 µM, the CC50 (Vero cells; Vero, HSV-1 assay) was over 10 µM and the CC50 (Vero cells; Vero, RSV assay) was over 10 µM. For the same compound, the EC50 (Influenza B strain Lee) was over 10 µM, the CC50 (HeLa cells) was over 10 µM and the EC50 [8] was 1.81 µM. The EC50 (Poliovirus strain Chat) was 4.71 µM, the EC50 [9] was 0.748 µM and the AUC0-6 [10] was 31940 ng·h/g. For the same compound, the AUC0-24 [10] was 59353 ng·h/g.
